Patent publication US20220213174A1, “IVIG TREATMENTS FOR SUDDEN SONSORINEURAL HEARING LOSS” (InnoMed Technologies, Inc., priority 2021, published 2022)

Experiments:
[1] = tested on: Hearing Loss, including Sudden Sensorineural Healing Loss; settings: prednisolone 60 mg per day for 5 days then reduced, or 50 mg per day for 10 days; cited from earlier work
[2] = tested on: Sudden Sensorineural Healing Loss; experiment: Example 1: treatment of a patient suffering from hearing loss; format: in vivo, human; settings: person; 60 mg/day prednisone therapy alone; two weeks
Method: The patient, a person was diagnosed by their doctor after claiming they are suffering from unexplained hearing loss. The patient's doctor diagnosed the patient as suffering from Sudden Sensorineural Healing Loss. […] Two weeks after administration, the patient is co-administered a single dose of IVIG at 2 g/kg and 60 mg prednisone and Sudden Sensorineural Healing Loss related symptoms […].

[3] = tested on: Sudden Sensorineural Hearing Loss; experiment: Example 2: treatment of a patient suffering from hearing loss; format: in vivo, human; settings: person; 60 mg/day prednisone therapy alone for a month
Method: The patient, a person is diagnosed by their doctor as suffering from Sudden Sensorineural Hearing Loss. […] The patient is then administered IVIG at 2 g/kg and 60 mg prednisone. Within three weeks, the Sudden Sensorineural Hearing Loss is resolved by about 80%. The patient is then administered a second dose of IVIG at 2 g/kg and 60 mg. prednisone. Within two weeks, the patient is resolved by about 95%. A week later, the patient's Sudden Sensorineural Hearing Loss symptoms have disappeared and the patient presents as normal.

Compound: C[C@]12C=CC(=O)C=C1CC[C@@H]1[C@@H]2[C@@H](O)C[C@@]2(C)[C@H]1CC[C@]2(O)C(=O)CO [prednisolone]
- outcome and time to complete recovery in patients with Hearing Loss [1]: improves outcome

Compound: C[C@]12C=CC(=O)C=C1CC[C@@H]1[C@@H]2C(=O)C[C@@]2(C)[C@H]1CC[C@]2(O)C(=O)CO [prednisone]
- reduction in the symptoms they suffer [2]: no reduction
- resolution of Sudden Sensorineural Hearing Loss [3]: did not resolve

Compound: methylprednisone
- outcome and time to complete recovery in patients with Hearing Loss [1]: improves outcome
